Results reported in patent publication US7524930B2, “Tumor antigen” (Green Peptide Co., Ltd, priority 2003, dated 2009).
Peptide text beside a SMILES is read from it.

Tests used:
[1] = tested on: peripheral blood mononuclear cells derived from a cancer patient; assay type: cell-based, human
Method: Moreover, CTL-activating ability of these 19 peptides was directly examined in a ^51Cr-releasing test using toxicity to the target cells as an indicator. Specifically, the above-described PBMC, in which CTL was induced, was further recultured to proliferate in the presence of autologous APC, IL-2, and a corresponding peptide. At about day 21 to 28 after the start of reculturing, PBMC was collected and cytotoxicity thereof was tested again by measuring IFN-γ and by a 6-h ^51Cr-releasing test. PBMC of the cancer patient, which was stimulated by these peptides, lysed the HLA-A2^+ tumor cells. However, the autologous EBV-B cells and the T cells stimulated by PHA, both of which were derived from normal cells and were expressing HLA-A2, and the HLA-A2^− tumor cell RERF-LC-MS, were not lysed.

[2] = tested on: Panc-1 cells and YPK-3 cells; assay: 51Cr-releasing test of CTLs induced by KM-PA-2 peptides (Example 8); assay type: cell-based, human; conditions: result in words; for Lysis of HLA-A2- tumor cell and normal cells by peptide-induced CTLs: PaCa-2, EBV-B cell line OKAB2, PHA-stimulated T cells; for Lysis of HLA-A2+ tumor cells by peptide-induced CTLs: Panc-1 cells and YPK-3 cells
Description: The ability of the synthesized peptide to induce CTL from the peripheral blood mononuclear cells of the colon cancer patient, from whom OK-CTLp was obtained, was examined in the same way as that in Example 6. As a result, as shown in FIGS. 20A-20B, PBMC that was stimulated in vitro using any one of peptides P33 to P41 (SEQ ID NO:33 to SEQ ID NO:41) derived from KM-PA-2 and peptides P42 to P44 (SEQ ID NO:42 to SEQ ID NO:44) derived from KM-PA-4, produced IFN-γ through recognition of the T2 cells (left-hand figure of FIGS. 20A-20B,) which were pulsed with the peptide corresponding to that used for stimulation of the PBMC, and the Panc-1 cell (right-hand of FIGS. 20A-20B,) which is the HLA-A2^+ tumor cell. However, the PBMC reacted […] to the HLA-A2^− tumor cell. […] In addition, cytotoxicity of these CTLs induced by the peptides was directly confirmed by the ^51Cr-releasing test in the same way as that in Example 6. FIGS. 21A-21C show a representative example of the result. As shown in FIGS. 21A-21C, CTLs induced from PBMC of the cancer patient by P35, P39, or P40 lysed Panc-1 cells and YPK-3 cells, both of which are HLA-A2^+ tumor cells. However, the HLA-A2^− tumor cell PaCa-2, the EBV-B cell line OKAB2, and the T cells stimulated by PHA, was not lysed.

[3] = tested on: OK-CTLp or OK-CTL clone; assay: Recognition of peptide-pulsed T2 cells by OK-CTLp or OK-CTL clone (IFN-γ ELISA); assay type: cell-based, human
[4] = tested on: Panc-1 pancreatic adenocarcinoma cell (HLA-A2); assay: 6-h 51Cr-releasing test of peptide-stimulated PBMC against Panc-1 (Example 6); assay type: cell-based, human
Method: Meanwhile, the above-described cells cultured for 10 days after stimulation by the peptide were further cultured for 10 days. The cytotoxicity of the obtained cells against the Panc-1 pancreatic adenocarcinoma cell (HLA-A2) was measured by the standard 6-h ^51Cr-releasing test in an E/T ratio of 10:1. The results obtained are presented as % specific lysis (table 7). Together with this step, cytotoxicity against SSTW-9 tumor cell as the HLA-A2^− tumor cell was measured to use as a background that was subtracted from the above-described result.

[5] = tested on: human peripheral blood mononuclear cells (PBMC); assay: CTL induction by peptide from PBMC of HLA-A2-positive cancer patients and healthy individuals, IFN-γ against peptide-pulsed T2 cells (Example 6); assay type: cell-based; conditions: for INF-γ production: peptide-pulsed T2 cells; for Patients in whom peptide-specific HLA-A2-restricted CTL were induced from PBMC: sixteen HLA-A2-positive cancer patients
Method: For six peptides (P21, P22, P24, P26, P30, and P32) with a purity of 95% or higher among peptides from P20 to P32 derived from gene 7 and CPSF among the tumor antigen peptide obtained in Example 4, the activity to induce CTL in vitro from human peripheral blood mononuclear cells (PBMC) was examined using IFN-γ production as an indicator. PBMC used was prepared from each peripheral blood of sixteen HLA-A2-positive cancer patients (4 patients with pancreatic cancer, seven patients with stomach cancer, and 5 patients with colon cancer) and six healthy individuals. Specifically, 1×10^5 PBMC was added to each well of 96-well U-bottom type microculture plate (Nunc Corp.) and incubated together with 10 μM of each of the above-described peptides in 200 μl culture medium. The culture medium consisted of 45% RPMI-1640, 45% AIM-V (Invitrogen Corp.,) 10% fetal calf serum (FCS), 100U/ml of human interleukin-2, and […] MEM nonessential amino acid solution (Invitrogen Corp.). At day 4 and day 7 after the start of culturing, half of the culture medium was removed and replaced with the above-described composition containing each corresponding peptide. At day 10 after the start of culturing, the cells were collected and washed, followed by reacting with T2 cells, which were pulsed with each corresponding peptide, to measure the amount of IFN-γ produced.

[6] = concentration of peptide 0.1 μM
[7] = PBMC of pancreatic cancer patient 2, Panc-1, E/T 10:1, SSTW-9 background subtracted
[8] = PBMC of pancreatic cancer patient 4, Panc-1, E/T 10:1
[9] = PBMC of colon cancer patient 12
[10] = PBMC of colon cancer patient 13
[11] = PBMC of colon cancer patient 14
[12] = PBMC of colon cancer patient 15
[13] = PBMC of colon cancer patient 16
[14] = PBMC of pancreatic cancer patient 1
[15] = PBMC of pancreatic cancer patient 2
[16] = PBMC of pancreatic cancer patient 3
[17] = PBMC of pancreatic cancer patient 4
[18] = PBMC of stomach cancer patient 5
[19] = PBMC of stomach cancer patient 6
[20] = PBMC of stomach cancer patient 7
[21] = PBMC of stomach cancer patient 8
[22] = PBMC of stomach cancer patient 9
[23] = PBMC of stomach cancer patient 10
[24] = PBMC of stomach cancer patient 11
[25] = PBMC of colon cancer patient 13, Panc-1, E/T 10:1

| Molecule | Lysis of HLA-A2- tumor cell and normal cells by peptide-induced CTLs [2] | Lysis of HLA-A2+ tumor cells by peptide-induced CTLs [2] | IFN-γ production [3, 6] [pg/mL] | IFN-γ production ([3]; concentration of peptide 1 μM) [pg/mL] | % specific lysis [4, 8] [%] | INF-γ production [5, 9] [pg/mL] | INF-γ production [5, 10] [pg/mL] | INF-γ production [5, 11] [pg/mL] | INF-γ production [5, 12] [pg/mL] | INF-γ production [5, 13] [pg/mL] | INF-γ production ([5]; PBMC of healthy individual HD1) [pg/mL] | INF-γ production ([5]; PBMC of healthy individual HD2) [pg/mL] | INF-γ production ([5]; PBMC of healthy individual HD3) [pg/mL] | INF-γ production ([5]; PBMC of healthy individual HD4) [pg/mL] | INF-γ production ([5]; PBMC of healthy individual HD5) [pg/mL] | INF-γ production ([5]; PBMC of healthy individual HD6) [pg/mL] | INF-γ production [5, 14] [pg/mL] | INF-γ production [5, 15] [pg/mL] | INF-γ production [5, 16] [pg/mL] | INF-γ production [5, 17] [pg/mL] | also measured |
| --- | --- | --- | --- | --- | --- | --- | --- | --- | --- | --- | --- | --- | --- | --- | --- | --- | --- | --- | --- | --- | --- |
| CC[C@H](C)[C@H](NC(=O)[C@@H](NC(=O)[C@@H](N)CCCNC(=N)N)[C@@H](C)CC)C(=O)N[C@@H](Cc1ccc(O)cc1)C(=O)N[C@@H](CC(=O)O)C(=O)N[C@@H](CCCNC(=N)N)C(=O)N[C@@H](CCCCN)C(=O)N[C@@H](Cc1ccccc1)C(=O)N[C@@H](CC(C)C)C(=O)O [Peptide P14] (H-RIIYDRKFL-OH) |  |  |  |  |  |  |  |  |  |  |  |  |  |  |  |  |  |  |  |  | Cytotoxicity of peptide-stimulated PBMC to the autologous EBV-B cells [1]: showed cytotoxicity |
| CC[C@H](C)[C@H](N)C(=O)N[C@H](C(=O)N[C@@H](Cc1ccc(O)cc1)C(=O)N[C@@H](CC(=O)O)C(=O)N[C@@H](CCCNC(=N)N)C(=O)N[C@@H](CCCCN)C(=O)N[C@@H](Cc1ccccc1)C(=O)N[C@@H](CC(C)C)C(=O)N[C@@H](CCSC)C(=O)O)[C@@H](C)CC [Peptide P15] (H-IIYDRKFLM-OH) |  |  |  |  |  |  |  |  |  |  |  |  |  |  |  |  |  |  |  |  | Cytotoxicity of peptide-stimulated PBMC to the autologous EBV-B cells [1]: showed cytotoxicity |
| DLLQNPLLV (Designed peptide having an ability to activate HLA-A2 restricted Cytotoxic T lymphocytes) [Peptide P39, KM-PA-2 585-593] | not lysed | lysed |  |  |  |  |  |  |  |  |  |  |  |  |  |  |  |  |  |  |  |
| LLQNPLLVPV (Designed peptide having an ability to activate HLA-A2 restricted Cytotoxic T lymphocytes) [Peptide P40, KM-PA-2 586-595] | not lysed | lysed |  |  |  |  |  |  |  |  |  |  |  |  |  |  |  |  |  |  |  |
| LLRRADFHV (Designed peptide having an ability to activate HLA-A2 restricted Cytotoxic T lymphocytes) [Peptide P26, Gene 7 1296-1304] |  |  | 141 | 418 | 20 | 0 | 0 | 0 | 40 | 45 | 0 | 0 | 0 | 0 | 13 | 0 | 0 | 35 | 0 | 77 | IFN-γ production ([3]; concentration of peptide 10 μM): 1239 pg/mL; IFN-γ production ([3]; concentration of peptide 50 μM): 0 pg/mL; % specific lysis ([4]; PBMC of colon cancer patient 15, Panc-1, E/T 10:1): 12%; % specific lysis [4, 7]: 36%; % specific lysis ([4]; PBMC of stomach cancer patient 5, Panc-1, E/T 10:1): 11%; INF-γ production [5, 18]: 53 pg/mL; INF-γ production [5, 19]: 0 pg/mL; INF-γ production [5, 20]: 0 pg/mL; INF-γ production [5, 21]: 11 pg/mL; INF-γ production [5, 22]: 8 pg/mL; INF-γ production [5, 23]: 0 pg/mL; INF-γ production [5, 24]: 0 pg/mL; Patients in whom peptide-specific HLA-A2-restricted CTL were induced from PBMC [5]: 31% |
| LMLQNALTIM (LMLQNALTTM; Designed peptide having an ability to activate HLA-A2 restricted Cytotoxic T lymphocytes) [Peptide P30, Gene 7 1359-1368] |  |  | 88 | 7001 | 11 | 0 | 41 | 33 | 0 | 68 | 0 | 0 | 14 | 0 | 0 | 0 | 0 | 12 | 0 | 73 | % specific lysis [4, 25]: 12%; % specific lysis ([4]; PBMC of colon cancer patient 14, Panc-1, E/T 10:1): 10%; % specific lysis ([4]; PBMC of stomach cancer patient 8, Panc-1, E/T 10:1): 18%; % specific lysis ([4]; PBMC of stomach cancer patient 10, Panc-1, E/T 10:1): 26%; INF-γ production [5, 18]: 0 pg/mL; INF-γ production [5, 19]: 0 pg/mL; INF-γ production [5, 20]: 0 pg/mL; INF-γ production [5, 21]: 146 pg/mL; INF-γ production [5, 22]: 92 pg/mL; INF-γ production [5, 23]: 46 pg/mL; INF-γ production [5, 24]: 0 pg/mL; Patients in whom peptide-specific HLA-A2-restricted CTL were induced from PBMC [5]: 44% |
| QLGQGNLKV [Peptide P23] |  |  | 6360 | 0 | 10 | 71 | 138 | 48 | 14 | 0 | 0 | 13 | 8 | 6 | 83 | 45 | 0 | 41 | 0 | 72 | IFN-γ production ([3]; concentration of peptide 10 μM): 345 pg/mL; IFN-γ production ([3]; concentration of peptide 50 μM): 160 pg/mL; % specific lysis ([4]; PBMC of colon cancer patient 12, Panc-1, E/T 10:1): 18%; % specific lysis [4, 25]: 10%; % specific lysis [4, 7]: 53%; % specific lysis ([4]; PBMC of stomach cancer patient 7, Panc-1, E/T 10:1): 10%; INF-γ production [5, 18]: 0 pg/mL; INF-γ production [5, 19]: 0 pg/mL; INF-γ production [5, 20]: 46 pg/mL; INF-γ production [5, 21]: 0 pg/mL; INF-γ production [5, 22]: 0 pg/mL; INF-γ production [5, 23]: 0 pg/mL; INF-γ production [5, 24]: 0 pg/mL; Patients in whom peptide-specific HLA-A2-restricted CTL were induced from PBMC [5]: 25% |
| WAQEDPNAV (Designed peptide having an ability to activate HLA-A2 restricted Cytotoxic T lymphocytes) [Peptide P35, KM-PA-2 172-180] | not lysed | lysed |  |  |  |  |  |  |  |  |  |  |  |  |  |  |  |  |  |  |  |
